Measurements reported in PMC5045412, “Inhibition of pro-HGF activation by SRI31215, a novel approach to block oncogenic HGF/MET signaling” (Oncotarget, 2016).

Key:
Format in all cases: cell-based
DiFi cells [1] = test: Proliferation of DiFi cells induced by HGF or fibroblast conditioned medium; details: 48 hours; for fibroblast-induced proliferation: fibroblast conditioned medium
Method: Cell lysates from EBC cells were used as control for pMET. B. DiFi cells were cultured in the presence of
HGF or fibroblast conditioned medium in the absence or the presence of JNJ38877605 or SRI 31215 for 48 hours. Neutralization of HGF
in fibroblast conditioned medium by anti-HGF antibodies inhibits growth promoting activity of fibroblasts (data not shown). […]

DU145 cells = test: Cell scattering assay; details: 24 hours, SRI 31215 10 μM; for fibroblast-induced cell scattering: 18Co conditioned media, JNJ 38877605 1 μM
Method: DU145 cells were cultured in 6-well tissue culture plates at a density of 1×10^3 cells per well. After colonies formed (6-8 days), cells were serum-starved overnight and were then treated with recombinant HGF (10 ng/ml) or with conditioned media from 18Co fibroblasts in the presence or absence of SRI 31215 (10 μM) or the MET kinase inhibitor JNJ 38877605 (1 μM) for 24 hours. Cells were washed with PBS and colonies were fixed and stained with 0.5% crystal violet solution in 6% glutaraldehyde.

RKO cells = test: Basal, constitutive migration of RKO cells; details: data not shown
Method: Cancer cells were seeded in 12-well plates and allowed to reach confluence. Following overnight serum-starvation, a scratch/wound was introduced into the cell monolayer with a sterile tip. Cells were cultured in serum-free media or were treated with recombinant HGF (10 ng/ml) or serum-free conditioned media from fibroblasts (50%) in the presence or absence of SRI 31215 or JNJ 38877605. Images of migrating cells were captured at 0, 12 and 24 hours after the treatment.

HT29 cells = test: Viability of HT29 cells with EGFR inhibitor; details: HT29 cells (HGF-), gefitinib 5 μM; SRI 31215 10 μM, JNJ 38877605 1 μM
Method: (§1) Cell titer-glo luminescent cell viability assay kit was purchased from Promega. […] For clonogenic assay, cells were seeded in 6-well plates at a density of 400 cells per well, serum starved overnight, and treated as indicated. After colony formation (8-12 days), cells were stained with crystal violet and the number of colonies was determined using ImageQuantTL (GE Health Care Life Sciences).
Supplementary Figure S3: Inhibition of HGF/MET signaling sensitizes HGF-producing RKO colon cancer cells to gefitinib. A. RKO cells (HGF+) and B. HT29 (HGF-) cells were treated with gefitinib (5 μM) in the absence or the presence of SRI 31215 (10 μM) or JNJ 38877605 (1 μM) as indicated and viability was determined 24 and 72 hours after treatment. # indicates statistical significance compared to samples treated with gefitinib alone as determined by Students’ t-test (p<0.05).
(also on this page, place not known: www.impactjournals.com/oncotarget/ Oncotarget, Materials 2016 Supplementary (HGF +) (HGF -)) […]

DiFi cells [2] = test: Viability of DiFi cells with EGFR inhibitors and fibroblast conditioned medium; details: gefitinib 0.5 μM or cetuximab 0.5 μg/ml, 72 hours
Method: (§2) Figure 6 Fibroblasts inhibit the proapoptotic activity of EGFRi in an HGF-dependent manner A. and B. DiFi cells were treated with gefitinib (0.5 μM) or cetuximab (0.5 μg/ml) in the absence or the presence of conditioned medium from fibroblasts and SRI 31215 and JNJ 38877605 as indicated. The viability was determined after 72 hours. In B, fibroblast conditioned medium was incubated with anti HGF or anti-IL1β antibodies. C. and D. DiFi cells were treated with gefitinib (C) or cetuximab (D) in the presence of conditioned medium from fibroblasts and inhibitors of HGF/MET signaling as indicated for 18h. Caspase activity was assessed by the Caspase-Glo 3/7 Assay from Promega.
as §1

DiFi cells [3] = test: Caspase-Glo 3/7 Assay; details: fibroblast conditioned medium, 18h
Method: as §2
DiFi cells were seeded at a density of 20,000 cells/well in a 96 well plate and were treated with EGFRi in the absence or the presence of SRI 31215 or JNJ 38877605 for 18h. Caspase activity was assessed by the Caspase-Glo 3/7 Assay from Promega following the manufacturer's instructions.

DiFi cells [4] = test: DiFi cells co-cultured with WI38 fibroblasts, immunoblotting; details: gefitinib 0.5 μM, WI38 co-culture, SRI 31215 10 μM, JNJ38877605 1 μM
Method: Figure 7 Fibroblasts protect DiFi cells from EGFRi in an HGF-dependent manner DiFi cells were treated with gefitinib (0.5 μM) alone or were co-cultured with WI38 fibroblasts (FIB) in the absence or the presence of SRI 31215 (10 μM) or JNJ38877605 (1 μM). The DiFi cell lysates were isolated after 4 or 24 hours as indicated and examined for the expression of pERK and total ERK, pEGFR and total EGFR, cleaved PARP, β-catenin gelsolin and β-actin by immunoblotting.
Immunoblotting was performed using standard procedures. Membranes were blocked with 5% non-fat milk for 1 hour at RT, and incubated with primary antibodies overnight at 4°C. Primary antibodies used were anti-HGF (R&D Systems), anti-MET, anti-p-MET, anti-p-GAB1, anti-p-AKT, anti-p-ERK1/2, anti-vimentin (Cell Signaling Technology), anti-p-STAT3 (Upstate Cell Signaling Solutions), anti-E-cadherin (BD Transduction Laboratories), anti-β-actin (Sigma). Following washing with TBS-T buffer, membranes were incubated with horseradish peroxidase-conjugated secondary antibodies for 1 hour and then washed with TBS-T. Immunoblots were developed using the chemiluminescent detection system with ECL (Amersham). Protein loading was normalized by probing blots for the expression of β-actin.

SMILES | proliferation induced by recombinant, active HGF (DiFi cells [1]) | fibroblast-induced proliferation (DiFi cells [1]) | fibroblast-induced cell scattering (DU145 cells) | scattering induced by active HGF (DU145 cells) | basal, constitutive migration (RKO cells) | response to EGFRi (HT29 cells) | fibroblast-mediated resistance to gefitinib and cetuximab (viability) (DiFi cells [2]) | gefitinib-induced activation of caspase 3 and caspase 7 in the presence of fibroblasts (DiFi cells [3]) | gefitinib-induced cleavage of PARP in the presence of fibroblasts (DiFi cells [4]) | prosurvival activity of fibroblasts (EGFR and ERK phosphorylation under gefitinib) (DiFi cells [4])
CC1CN(CC2CCN(Cc3ccccc3)CC2)C(=O)N(c2cccc(C(=N)N)c2)C1 (stereo not shown) [SRI 31215, 3-(3-((1-benzylpiperidin-4-yl)methyl)-5-methyl-2-oxotetrahydropyrimidin-1(2H)-yl)benzimidamide] | did not influence | as efficient as JNJ 38877605 in preventing | prevented | did not interfere | inhibit | did not improve | prevent | restored | restored | blocked
Cn1cc(-c2ccc3nnc(C(F)(F)c4ccc5ncccc5c4)n3n2)cn1 [JNJ 38877605, reference compound] | prevented | prevented | prevented | – | inhibit | did not improve | prevent | restored | restored | blocked
